Laboratory results published in patent publication US20260327214A1, “1,3,4-OXADIAZOLE DERIVATIVE COMPOUNDS AS HISTONE DEACETYLASE 6 INHIBITOR, AND USES THEREOF” (CHONG KUN DANG PHARMACEUTICAL CORP., priority 2022, published 2026).

Assays:
human recombinant HDAC1 = target: T1, human recombinant HDAC1 (Homo sapiens, UniProt Q13547); experiment: HDAC1 enzyme activity inhibition test (HDAC Fluorometric Drug Discovery Kit); type: biochemical; conditions: 30° C., 60 minutes, 10 μM substrate
T1 construct: purchased Enzo Life Science BML-SE456
T1 sequence (Q13547 whole entry): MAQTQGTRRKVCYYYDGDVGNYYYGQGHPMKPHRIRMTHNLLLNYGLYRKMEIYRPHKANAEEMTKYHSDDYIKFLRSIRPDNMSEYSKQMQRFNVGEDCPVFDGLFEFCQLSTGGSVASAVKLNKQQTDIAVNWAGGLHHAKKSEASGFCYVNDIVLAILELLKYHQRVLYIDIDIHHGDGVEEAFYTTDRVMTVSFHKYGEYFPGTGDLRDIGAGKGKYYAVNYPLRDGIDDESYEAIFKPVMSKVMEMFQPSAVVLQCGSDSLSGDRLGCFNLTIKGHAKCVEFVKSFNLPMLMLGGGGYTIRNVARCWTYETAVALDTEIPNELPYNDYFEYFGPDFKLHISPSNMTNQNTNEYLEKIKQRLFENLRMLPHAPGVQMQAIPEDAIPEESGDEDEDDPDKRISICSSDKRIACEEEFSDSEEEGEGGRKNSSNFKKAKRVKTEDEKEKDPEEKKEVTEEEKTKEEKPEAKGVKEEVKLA
Summary of the method: (§1)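 Recombinant human HDAC1 or HDAC6 (0.3 μg) reacted with 10 μM Fluor de Lys SIRT1 substrate and 5-fold diluted compound for 60 min at 30 °C. Developer II added 30 min; fluorescence read at Ex 360/Em 460 and IC50 calculated.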

human recombinant HDAC6 = target: T2, human recombinant HDAC6 (Homo sapiens, UniProt Q9UBN7); experiment: HDAC6 enzyme activity inhibition test (HDAC Fluorometric Drug Discovery Kit); type: biochemical; conditions: for HDAC6 selectivity (fold): HDAC6 over HDAC1; for IC50: human recombinant HDAC6, same protocol as HDAC1
T2 construct: purchased Calbiochem 382180
T2 sequence (Q9UBN7 1-1215): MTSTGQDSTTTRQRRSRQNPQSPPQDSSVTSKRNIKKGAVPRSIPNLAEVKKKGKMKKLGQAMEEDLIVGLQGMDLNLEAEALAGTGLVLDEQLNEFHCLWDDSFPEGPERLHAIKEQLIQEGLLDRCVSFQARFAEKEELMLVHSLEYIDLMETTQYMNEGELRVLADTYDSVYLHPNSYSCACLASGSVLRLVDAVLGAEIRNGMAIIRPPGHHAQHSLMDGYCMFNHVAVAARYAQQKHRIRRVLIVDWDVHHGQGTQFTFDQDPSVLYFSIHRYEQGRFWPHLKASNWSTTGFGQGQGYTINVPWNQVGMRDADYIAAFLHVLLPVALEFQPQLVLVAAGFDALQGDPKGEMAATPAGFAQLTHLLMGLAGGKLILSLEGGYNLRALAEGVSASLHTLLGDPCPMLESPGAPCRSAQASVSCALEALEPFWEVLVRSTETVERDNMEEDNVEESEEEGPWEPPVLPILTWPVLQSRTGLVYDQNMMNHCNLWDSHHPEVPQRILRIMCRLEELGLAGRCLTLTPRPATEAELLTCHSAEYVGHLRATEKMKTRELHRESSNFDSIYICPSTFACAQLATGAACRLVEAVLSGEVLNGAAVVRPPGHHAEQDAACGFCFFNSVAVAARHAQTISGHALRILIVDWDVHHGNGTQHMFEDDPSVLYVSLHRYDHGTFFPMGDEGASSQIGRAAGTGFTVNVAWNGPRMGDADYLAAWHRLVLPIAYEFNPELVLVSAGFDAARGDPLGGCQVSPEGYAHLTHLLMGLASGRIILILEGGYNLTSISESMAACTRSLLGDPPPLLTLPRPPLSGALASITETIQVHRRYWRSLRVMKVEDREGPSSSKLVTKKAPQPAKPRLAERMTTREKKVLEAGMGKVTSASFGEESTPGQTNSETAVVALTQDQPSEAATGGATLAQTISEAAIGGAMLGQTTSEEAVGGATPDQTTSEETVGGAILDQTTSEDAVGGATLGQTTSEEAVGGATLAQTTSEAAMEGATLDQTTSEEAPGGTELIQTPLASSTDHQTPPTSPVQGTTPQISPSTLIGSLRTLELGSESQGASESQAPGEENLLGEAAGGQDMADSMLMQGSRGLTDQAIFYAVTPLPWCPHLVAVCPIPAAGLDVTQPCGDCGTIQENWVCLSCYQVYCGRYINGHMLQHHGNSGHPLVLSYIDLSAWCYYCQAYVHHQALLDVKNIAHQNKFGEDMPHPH
Summary of the method: as §1

SMILES | IC50 (human recombinant HDAC1) | HDAC6 selectivity (fold) (human recombinant HDAC6) | IC50 (human recombinant HDAC6)
Cc1ncc(-c2nn(Cc3ncc(-c4nnc(C(F)F)o4)cc3F)c(=S)o2)s1 [Compound 61, 3-[[5-[5-(difluoromethyl)-1,3,4-oxadiazol-2-yl]-3-fluoro-2-pyridyl]methyl]-5-(2-methylthiazol-5-yl)-1,3,4-oxadiazol-2-thione] | > 50 µM | 540 fold | 92.6 nM
O=c1oc(-c2ccccc2)nn1Cc1ccc(-c2nnc(C(F)F)o2)cn1 [Compound 1, 3-((5-(5-(difluoromethyl)-1,3,4-oxadiazol-2-yl)pyridin-2-yl)methyl)-5-phenyl-1,3,4-oxadiazol-2 (3H)-one] | > 50 µM | 416 fold | 120 nM
CC1CCN(Cc2ccc(-c3nn(Cc4ccc(-c5nnc(C(F)F)o5)cn4)c(=O)o3)c(F)c2)CC1 [Compound 4, 3-[[5-[5-(difluoromethyl)-1,3,4-oxadiazol-2-yl]-2-pyridyl]methyl]-5-[2-fluoro-4-[(4-methyl-1-piperidyl)methyl]phenyl]-1,3,4-oxadiazol-2-one] | > 50 µM | 595 fold | 84.1 nM
O=c1oc(-c2cccc(C3CCN(C4COC4)CC3)c2F)nn1Cc1ccc(-c2nnc(C(F)F)o2)cn1 [Compound 26, 3-[[5-[5-(difluoromethyl)-1,3,4-oxadiazol-2-yl]-2-pyridyl]methyl]-5-[2-fluoro-3-[1-(oxetan-3-yl)-4-piperidyl]phenyl]-1,3,4-oxadiazol-2-one] | > 50 µM | 503 fold | 99.4 nM
FC(F)c1nnc(-c2ccc(Cn3nc(-c4csc(CN5CCC5)c4)oc3=S)nc2)o1 [Compound 134, 5-[5-(azetidine-1-ylmethyl)-3-thienyl]-3-[[5-[5-(difluoromethyl)-1,3,4-oxadiazol-2-yl]-2-pyridyl]methyl]-1,3,4-oxadiazol-2-thione] | > 50 µM | 680 fold | 73.5 nM
O=c1oc(-c2cccc(C3CCN(C4COC4)CC3)c2)nn1Cc1ccc(-c2nnc(C(F)F)o2)cn1 [Compound 9, 3-[[5-[5-(difluoromethyl)-1,3,4-oxadiazol-2-yl]-2-pyridyl]methyl]-5-[3-[1-(oxetane-3-yl)-4-piperidyl]phenyl]-1,3,4-oxadiazol-2-one] | > 50 µM | 585 fold | 85.5 nM
CC(C)N1CCN(c2nccc(-c3nn(Cc4ccc(-c5nnc(C(F)F)o5)cn4)c(=S)o3)n2)CC1 [Compound 127, 3-[[5-[5-(difluoromethyl)-1,3,4-oxadiazol-2-yl]-2-pyridyl]methyl]-5-[2-(4-isopropylpiperazin-1-yl)pyrimidin-4-yl]-1,3,4-oxadiazol-2-thione] | > 50 µM | 879 fold | 56.9 nM
O=C1OCC(c2cccs2)=NN1Cc1ncc(-c2nnc(C(F)F)o2)cc1F [Compound 70, 3-[[5-[5-(difluoromethyl)-1,3,4-oxadiazol-2-yl]-3-fluoro-2-pyridyl]methyl]-5-(2-thienyl)-6H-1,3,4-oxadiazin-2-one] | > 50 µM | 460 fold | 109 nM
O=c1oc(-c2cccs2)nn1Cc1ccc(-c2nnc(C(F)F)o2)cn1 [Compound 5, 3-[[5-[5-(difluoromethyl)-1,3,4-oxadiazol-2-yl]-2-pyridyl]methyl]-5-(2-thienyl)-1,3,4-oxadiazol-2-one] | > 50 µM | 589 fold | 84.9 nM
CN(C)Cc1cc(-c2nn(Cc3ccc(-c4nnc(C(F)F)o4)cn3)c(=S)o2)cs1 [Compound 131, 3-[[5-[5-(difluoromethyl)-1,3,4-oxadiazol-2-yl]-2-pyridyl]methyl]-5-[5-[(dimethylamino)methyl]-3-thienyl]-1,3,4-oxadiazol-2-thione] | > 50 µM | 612 fold | 81.7 nM
O=C1OCC(c2ccc(-c3ccccn3)s2)=NN1Cc1ccc(-c2nnc(C(F)F)o2)cn1 [Compound 74, 3-[[5-[5-(difluoromethyl)-1,3,4-oxadiazol-2-yl]-2-pyridyl]methyl]-5-[5-(2-pyridyl)-2-thienyl]-6H-1,3,4-oxadiazin-2-one] | > 50 µM | 828 fold | 60.4 nM
Fc1cc(-c2nnc(C(F)F)o2)cnc1Cn1nc(-c2ccc(CN3CC[C@@H](F)C3)cc2)oc1=S [Compound 113, 3-[[5-[5-(difluoromethyl)-1,3,4-oxadiazol-2-yl]-3-fluoro-2-pyridyl]methyl]-5-[4-[[(3R)-3-fluoropyrrolidin-1-yl]methyl]phenyl]-1,3,4-oxadiazol-2-thione] | > 50 µM | 778 fold | 64.3 nM
CCN1CCN(c2cccc(-c3nn(Cc4ccc(-c5nnc(C(F)F)o5)cn4)c(=S)o3)n2)CC1 [Compound 100, 3-[[5-[5-(difluoromethyl)-1,3,4-oxadiazol-2-yl]-2-pyridyl]methyl]-5-[6-(4-ethylpiperazin-1-yl)-2-pyridyl]-1,3,4-oxadiazol-2-thione] | > 50 µM | 2049 fold | 24.4 nM
CN1CCC(c2cc(-c3nn(Cc4ccc(-c5nnc(C(F)F)o5)cn4)c(=S)o3)ccc2F)CC1 [Compound 115, 3-[[5-[5-(difluoromethyl)-1,3,4-oxadiazol-2-yl]-2-pyridyl]methyl]-5-[4-fluoro-3-(1-methyl-4-piperidyl)phenyl]-1,3,4-oxadiazol-2-thione] | > 50 µM | 483 fold | 104 nM
FC(F)c1nnc(-c2ccc(Cn3nc(-c4cccc(CN5CCCC5)c4)oc3=S)nc2)o1 [Compound 86, 3-[[5-[5-(difluoromethyl)-1,3,4-oxadiazol-2-yl]-2-pyridyl]methyl]-5-[3-(pyrrolidin-1-ylmethyl)phenyl]-1,3,4-oxadiazol-2-thione] | > 50 µM | 760 fold | 65.8 nM
Fc1cc(-c2nnc(C(F)F)o2)cnc1Cn1nc(-c2ccc(CN3CC(F)C3)cc2)oc1=S [Compound 110, 3-[[5-[5-(difluoromethyl)-1,3,4-oxadiazol-2-yl]-3-fluoro-2-pyridyl]methyl]-5-[4-[(3-fluoroazetidine-1-yl)methyl]phenyl]-1,3,4-oxadiazol-2-thione] | > 50 µM | 919 fold | 54.4 nM
CC(C)N1CCN(Cc2cccc(-c3nn(Cc4ccc(-c5nnc(C(F)F)o5)cn4)c(=O)s3)c2)CC1 [Compound 63, 3-[[5-[5-(difluoromethyl)-1,3,4-oxadiazol-2-yl]-2-pyridyl]methyl]-5-[3-[(4-isopropylpiperazin-1-yl)methyl]phenyl]-1,3,4-thiadiazol-2-one] | > 50 µM | 620 fold | 80.7 nM
O=c1sc(-c2ccc(CN3CCN(C4CCC4)CC3)cc2)nn1Cc1ccc(-c2nnc(C(F)F)o2)cn1 [Compound 67] | > 50 µM | 890 fold | 56.2 nM
O=c1oc(-c2cccc3[nH]ccc23)nn1Cc1ccc(-c2nnc(C(F)F)o2)cn1 [Compound 34, 3-[[5-[5-(difluoromethyl)-1,3,4-oxadiazol-2-yl]-2-pyridyl]methyl]-5-(1H-indol-4-yl)-1,3,4-oxadiazol-2-one] | > 50 µM | 1695 fold | 29.5 nM
FC(F)c1nnc(-c2ccc(Cn3nc(-c4ccc(CN5CCC5)s4)oc3=S)nc2)o1 [Compound 123, 5-[5-(azetidine-1-ylmethyl)-2-thienyl]-3-[[5-[5-(difluoromethyl)-1,3,4-oxadiazol-2-yl]-2-pyridyl]methyl]-1,3,4-oxadiazol-2-thione] | > 50 µM | 1109 fold | 45.1 nM
FC(F)c1nnc(-c2ccc(Cn3nc(-c4ccc(CN5CCCCC5)cc4)oc3=S)nc2)o1 [Compound 94, 3-[[5-[5-(difluoromethyl)-1,3,4-oxadiazol-2-yl]-2-pyridyl]methyl]-5-[4-(1-piperidylmethyl)phenyl]-1,3,4-oxadiazol-2-thione] | > 50 µM | 1672 fold | 29.9 nM
